From US20240391870A1 (Arcturus Therapeutics, Inc., priority 2023, published 2024)
Where two headings read alike, the source gives them in different places.

Assays:
[1] = In vivo biodegradability assay (lipid in liver); conditions: Table 3; liver tissue, 0.3 mg/kg dose
Protocol: (§1) In vivo biodegradability assay was performed to assess the biodegradability of lipids in the LNP. Briefly, mice were injected with either 0.1 or 0.03 mg/Kg dose and after 24 or 48 hours mice livers were collected. To measure the concentration of lipids in the mouse liver, liver samples were homogenized in appropriate buffer in 1-10 dilution and mixed with the same amount of stabilized plasma. The samples were then mixed with organic solvents spiked with internal standard to precipitate proteins. After centrifugation, supernatant was diluted further with organic solvent before sample analysis by LC-MS. In LC-MS analysis, positive electrospray ionization was used, and multiple reaction monitoring (MRM) parameters were set up to specifically target the lipid analyte and internal standard. Calibration standards were prepared in stabilized plasma and mixed with same amount of homogenization buffer before protein precipitation. Quality control samples with known amounts of lipid was prepared in blank liver homogenate to monitor the precision and accuracy of the assay.

[2] = Lipid nanoparticle size, PDI and encapsulation; assay type: physicochemical; conditions: Table 3; for Size (nm): lipid nanoparticle; for EE %: lipid nanoparticle encapsulation
Protocol: In the context of nucleic acids, full encapsulation may be determined by performing a membrane-impermeable fluorescent dye exclusion assay, which uses a dye that has enhanced fluorescence when associated with nucleic acid. Encapsulation is determined by adding the dye to a lipid formulation, measuring the resulting fluorescence, and comparing it to the fluorescence observed upon addition of a small amount of nonionic detergent. Detergent-mediated disruption of the lipid layer releases the encapsulated nucleic acid, allowing it to interact with the membrane-impermeable dye. Nucleic acid encapsulation may be calculated as E=(I0−I)/I0, where I and I0 refer to the fluorescence intensities before and after the addition of detergent.

hEPO = hEPO mRNA expression evaluation (hEPO-LNPs); assay type: in vivo, Balb/c mice; conditions: Table 3; 0.3 mg/kg
factor VII = assay: Factor VII knock down evaluation (LNP with FVII siRNA); assay type: in vivo, Balb/C mice; conditions: Table 3; 0.03 mg/kg
Outline: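 Female Balb/C mice, 7–8 weeks old, received FVII siRNA lipid nanoparticles intravenously at 0.03 or 0.01 mg/kg. Plasma was collected 48 h later and FVII protein measured by chromogenic assay at 405 nm against a control plasma calibration curve. Levels are relative to saline-treated controls.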

[3] = Lipid nanoparticle size, PDI and encapsulation; assay type: physicochemical; conditions: Table 3
[4] = Measured pKa in the indicated formulation
Protocol: Measured pKa values were determined based on the pH measured in the indicated formulation (i.e., EPO or FVII formulation).

[5] = mouse, in vivo
Protocol: as §1

Row | SMILES | Invivo lipid degradability ng/g of Liver tissue @ 0.3 mg/kg dose [1] | Size (nm) [2] [nm] | EE % [2] [%] | EPO expression in ng/mL @ 0.3 mg/kg (hEPO) [ng/mL] | FVII KD % @ 0.03 mg/kg (factor VII) [%] | PDI [3] | pKa ([4]; Table 3, formulation not indicated) | pKa [4] | Invivo lipid degradability ng/g of Liver tissue @ 0.3 mg/kg dose [5] [ng/g]
1 | CCn1cc(CCC(C)C(=O)OCC(COC(=O)C(C)CCc2cn(CC)c3ccccc23)OC(=O)CCCN(CCCC(=O)OC(COC(=O)C(C)CCc2cn(CC)c3ccccc23)COC(=O)C(C)CCc2cn(CC)c3ccccc23)C(=O)SCCCN(C)C)c2ccccc21 (centres unmarked) [Lipid 43, ((4,4′-((((3-(dimethylamino)propyl)thio)carbonyl)azanediyl)bis(butanoyl))bis(oxy))bis(propane-2,1,3-triyl)tetrakis(4-(1-ethyl-1H-indol-3-yl)-2-methylbutanoate)] | 1970 ± 379 ng/g | 92.35 | 90 | 14.3 | 15.24 | 0.05 | 6.33 | – | –
2 | CN(C)CCCSC(=O)N(CCCC(=O)OCC(C)(COC(=O)CCC1CCCCC1)COC(=O)CCC1CCCCC1)CCCC(=O)OCC(C)(COC(=O)CCC1CCCCC1)COC(=O)CCC1CCCCC1 [Lipid 53, ((4,4′-((((3-(Dimethylamino)propyl)thio)carbonyl)azanediyl)bis(butanoyl))bis(oxy))bis(methylene))bis(2-methylpropane-2,1,3-triyl)tetrakis(3 cyclohexylpropanoate)] | 14200 ng/g | 85.94 | 93.1 | 15844.04 | 85.45 | 0.076 | – | 6.93 | –
3 | CN(C)CCCC(=O)OC(CCCC(=O)OCC(C)(COC(=O)CCC1CCCCC1)COC(=O)CCC1CCCCC1)CCCC(=O)OCC(C)(COC(=O)CCC1CCCCC1)COC(=O)CCC1CCCCC1 [Lipid 62, bis(3-((3-cyclohexylpropanoyl)oxy)-2-(((3-cyclohexylpropanoyl)oxy)methyl)-2-methylpropyl) 5-((4-(dimethylamino)butanoyl)oxy)nonanedioate] | 6880 ng/g | 72.43 | 95.3 | 2930.66 | – | 0.056 | – | 6.64 | –
4 | Cc1ccc(CCC(C)C(=O)OCC(COC(=O)C(C)CCc2ccc(C)cc2)OC(=O)CCCN(CCCC(=O)OC(COC(=O)C(C)CCc2ccc(C)cc2)COC(=O)C(C)CCc2ccc(C)cc2)C(=O)SCCCN(C)C)cc1 (centres unmarked) [Lipid 63, ((4,4′-((((3-(dimethylamino)propyl)thio)carbonyl)azanediyl)bis(butanoyl))bis(oxy))bis(propane-2,1,3-triyl)tetrakis(2-methyl-4-(p-tolyl)butanoate)] | – | 82.65 | 85.9 | 4601 | 76.17 | 0.046 | – | – | 603 ± 57.6
5 | CCCCCCC(C)(C)C(=O)OCC(COC(=O)CCCN(CCCC(=O)OCC(COC(=O)C(C)(C)CCCCCC)COC(=O)C(C)(C)CCCCCC)C(=O)SCCCN(C)C)COC(=O)C(C)(C)CCCCCC [Lipid 55] | 63300 ng/g | 71.78 | 93.0 | 10312.89 | 72.17 | 0.103 | – | 6.59 | –
6 | CC1CCC(CCC(=O)OCC(C)(COC(=O)CCC2CCC(C)CC2)COC(=O)CCN(CCCCCN(C)C)CCC(=O)OCC(C)(COC(=O)CCC2CCC(C)CC2)COC(=O)CCC2CCC(C)CC2)CC1 (centres unmarked) [Lipid 50, (((3,3′-((5-(dimethylamino)pentyl)azanedivl)bis(propanovl))bis(oxy))bis(methylene))bis(2-methylpropane-2,1,3-triyl)tetrakis(3-(4-methylcyclohexyl) propanoate)] | 28100 ng/g | 97.08 | 94.7 | 579.2 | 93.5 | 0.13 | – | 7.04 | –
7 | CC1CCC(CCC(=O)OCC(C)(COC(=O)CCC2CCC(C)CC2)COC(=O)CCN(CCC(=O)OCC(C)(COC(=O)CCC2CCC(C)CC2)COC(=O)CCC2CCC(C)CC2)C(=O)OCCCN(C)C)CC1 (centres unmarked) [Lipid 46] | – | 81.62 | 91.5 | 958.2 | 82.9 | 0.114 | – | 7.08 | –
8 | CCCCCCCC(=O)OCC(C)(COC(=O)CCCCCCC)COC(=O)CCCN(CCCC(=O)OCC(C)(COC(=O)CCCCCCC)COC(=O)CCCCCCC)C(=O)SCCCN(C)C [Lipid 54] | BLOQ | 76.03 | 90.9 | 25548.45 | 86.88 | 0.072 | – | 7.3 | –
9 | CN(C)CCCSC(=O)N(CCCC(=O)OCC(COC(=O)CCC1CCCCC1)COC(=O)CCC1CCCCC1)CCCC(=O)OCC(COC(=O)CCC1CCCCC1)COC(=O)CCC1CCCCC1 [Lipid 52] | BLOQ | 77.62 | 90.8 | 17888.62 | 69.66 | 0.038 | – | 7.2 | –
10 | CN(C)CCCC(=O)OC(CCCCCC(=O)OC(COC(=O)CCC1CCCCC1)COC(=O)CCC1CCCCC1)CCCCCC(=O)OC(COC(=O)CCC1CCCCC1)COC(=O)CCC1CCCCC1 [Lipid 59, bis(1,3-bis((3-cyclohexylpropanoyl)oxy)propan-2-yl) 7-((4-(dimethylamino)butanoyl)oxy)tridecanedioate] | BLOQ | 74.77 | 92.1 | 14723.72 | – | 0.068 | – | 6.37 | –
11 | CCCCC(C)(C)CC(=O)OCC(C)(COC(=O)CCC(CCC(=O)OCC(C)(COC(=O)CC(C)(C)CCCC)COC(=O)CC(C)(C)CCCC)OC(=O)CCCN(C)C)COC(=O)CC(C)(C)CCCC [Lipid 60, bis(3-((3,3-dimethylheptanol)oxy)-2-(((3,3-dimethylheptanol)oxy)methyl)-2-methylpropyl) 4-((4-(dimethylamino)butanoyl)oxy)heptanedioate] | 53300 ng/g | 65.95 | 93.9 | 1631.03 | – | 0.087 | – | 6.28 | –
12 | CC1CCC(CCC(=O)OCC(C)(COC(=O)CCC2CCC(C)CC2)COC(=O)CCC(CCC(=O)OCC(C)(COC(=O)CCC2CCC(C)CC2)COC(=O)CCC2CCC(C)CC2)OC(=O)CCCN(C)C)CC1 (centres unmarked) [Lipid 51, Bis(2-methyl-3-((3-(4-methylcyclohexyl)propanoyl)oxy)-2-(((3-(4-methylcyclohexyl)propanoyl)oxy)methyl)propyl) 4-((4-(dimethylamino)butanoyl)oxy)heptanedioate] | 36000 ng/g | 65.71 | 90.4 | 868.5 | 65.23 | 0.059 | – | 6.53 | –
13 | CN(C)CCCC(=O)OC(CCCC(=O)OC(COC(=O)CCC1CCCCC1)COC(=O)CCC1CCCCC1)CCCC(=O)OC(COC(=O)CCC1CCCCC1)COC(=O)CCC1CCCCC1 [Lipid 57, bis(1,3-bis((3-cyclohexylpropanoyl)oxy)propan-2-yl) 5-((4-(dimethylamino)butanoyl)oxy)nonanedioate] | BLOQ | 78.98 | 94.3 | 21737.69 | – | 0.065 | – | 6.52 | –
14 | CCCCCC(C)(C)C(=O)OCC(C)(COC(=O)CCCN(CCCC(=O)OCC(C)(COC(=O)C(C)(C)CCCCC)COC(=O)C(C)(C)CCCCC)C(=O)SCCCN(C)C)COC(=O)C(C)(C)CCCCC [Lipid 56] | 81900 ng/g | 67.34 | 91.5 | 5463.76 | 46.3 | 0.081 | – | 6.55 | –
